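Interpolation was linear, between the two tested concentrations surrounding the appropriate level; five concentrations were tested over 48 hours in 96-well plates. Abbreviation: GI50, concentration required for 50% inhibition of growth.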 Calls of active or inactive are those of the source. Rule as the data show it: active = GI50 up to about 1.1 µM and inactive = higher.
Key:
Experiment in all cases: NCI-60 cell line screen, 48 h
786-0 = system: 786-0
A498 = system: A498
EKVX = system: EKVX
HCC 2998 = system: HCC 2998
HOP-62 = system: HOP-62
HOP-92 = system: HOP-92
KM12 = system: KM12
LOX IMVI = system: LOX IMVI
M14 = system: M14
MDA-MB-231 = system: MDA-MB-231
NCI-H522 = system: NCI-H522
OVCAR-4 = system: OVCAR-4
RXF 393 = system: RXF 393
SK-MEL-2 = system: SK-MEL-2
SNB-19 = system: SNB-19
SR = system: SR
SW-620 = system: SW-620
SF-295 = system: SF-295
U-251 = system: U-251
T47D = system: T47D

Measured: GI50

COc1ccccc1Cn1[nH]c(=O)c2cc([N+](=O)[O-])ccc21
inactive: 786-0 42 µM | A498 26.5 µM | EKVX > 100 µM | HCC 2998 65.9 µM | HOP-62 > 100 µM | HOP-92 24.7 µM | KM12 > 100 µM | LOX IMVI > 100 µM | M14 > 100 µM | MDA-MB-231 64.4 µM | NCI-H522 > 100 µM | OVCAR-4 > 100 µM | RXF 393 25.8 µM | SK-MEL-2 24.4 µM | SNB-19 61.2 µM | SR > 100 µM | SW-620 84.9 µM

O=C(O)c1nc2ccc(C(F)(F)F)cc2nc1Nc1ccc(Cl)c(Cl)c1
inactive: 786-0 10.5 µM | A498 13.6 µM | EKVX 7.26 µM | HCC 2998 4.99 µM | HOP-62 7.85 µM | KM12 6.98 µM | LOX IMVI 9.82 µM | MDA-MB-231 6.05 µM | NCI-H522 2.95 µM | OVCAR-4 6.98 µM | RXF 393 13.4 µM | SF-295 4.36 µM | SK-MEL-2 2.31 µM | SNB-19 2.16 µM | SR 4.15 µM | SW-620 8.15 µM | U-251 3.93 µM

CC12CCCC(C(=O)O)(C1)[C@H](C(C)(C)C(=O)O)CC2 (some centres not stated)
inactive: 786-0 > 100 µM | EKVX > 100 µM | HOP-62 > 100 µM | HOP-92 > 100 µM | KM12 > 100 µM | LOX IMVI > 100 µM | M14 > 100 µM | NCI-H522 > 100 µM | OVCAR-4 > 100 µM | SF-295 > 100 µM | SK-MEL-2 > 100 µM | SNB-19 > 100 µM | SR > 100 µM | SW-620 > 100 µM | T47D > 100 µM | U-251 > 100 µM

CCOP(=O)(OCC)C(Nc1ccc(F)cc1)c1cccc([N+](=O)[O-])c1 (configuration not stated)
inactive: 786-0 > 10 µM | A498 > 100 µM | EKVX 90.4 µM | HCC 2998 71.6 µM | HOP-62 > 100 µM | HOP-92 37.9 µM | KM12 94 µM | LOX IMVI > 100 µM | M14 79.1 µM | MDA-MB-231 71.9 µM | NCI-H522 63.1 µM | OVCAR-4 57.4 µM | RXF 393 54.3 µM | SF-295 > 100 µM | SK-MEL-2 49.7 µM | SNB-19 > 100 µM | SR 93.5 µM | SW-620 > 100 µM | U-251 > 100 µM

O=C(CCCn1ccnc1[N+](=O)[O-])NCCn1ccnc1[N+](=O)[O-]
inactive: 786-0 > 100 µM | EKVX > 100 µM | HCC 2998 > 100 µM | HOP-62 > 100 µM | KM12 > 100 µM | LOX IMVI > 100 µM | M14 > 100 µM | NCI-H522 > 100 µM | OVCAR-4 > 100 µM | SF-295 > 100 µM | SK-MEL-2 > 100 µM | SNB-19 > 100 µM | SR > 100 µM | SW-620 > 100 µM | T47D > 100 µM | U-251 > 100 µM

COc1cc2c(cc1C)NC(=O)/C2=C/c1cccnc1
inactive: 786-0 16 µM | A498 10.8 µM | EKVX 18.3 µM | HCC 2998 2.34 µM | HOP-62 11.7 µM | HOP-92 15.3 µM | KM12 8.32 µM | M14 14 µM | NCI-H522 13 µM | OVCAR-4 26.1 µM | RXF 393 7.8 µM | SF-295 12.5 µM | SK-MEL-2 16 µM | SNB-19 11.7 µM | SW-620 20.8 µM | T47D 2.84 µM | U-251 9.55 µM

C(=N\N=C1NCCCCN1)/c1ccc2ccccc2c1
inactive: 786-0 23.1 µM | EKVX 46.7 µM | HCC 2998 15.3 µM | HOP-62 42.2 µM | HOP-92 14.4 µM | KM12 26.9 µM | LOX IMVI 15.7 µM | M14 14.5 µM | MDA-MB-231 31.4 µM | NCI-H522 26.7 µM | OVCAR-4 43.1 µM | RXF 393 22.8 µM | SF-295 21.3 µM | SK-MEL-2 21.9 µM | SNB-19 61.5 µM | SW-620 22.7 µM | T47D 18.4 µM | U-251 21.3 µM

Fc1ccc(C2NC(=S)NC3=C2CCOc2c3ccc3ccccc23)cc1 (configuration not stated)
inactive: 786-0 33 µM | A498 18.9 µM | EKVX 51.9 µM | HCC 2998 22.6 µM | HOP-62 64.9 µM | HOP-92 > 100 µM | KM12 21.8 µM | M14 27.7 µM | NCI-H522 35 µM | OVCAR-4 24.7 µM | RXF 393 14.8 µM | SF-295 34.4 µM | SK-MEL-2 79.6 µM | SNB-19 55.1 µM | SW-620 39.1 µM | T47D 2.7 µM

Cc1n[nH]c(=O)n1/N=C/c1ccc(Cl)cc1
inactive: 786-0 > 100 µM | A498 40 µM | EKVX 13.3 µM | HCC 2998 > 100 µM | HOP-62 32.5 µM | HOP-92 32.9 µM | KM12 > 100 µM | M14 > 100 µM | NCI-H522 21.7 µM | OVCAR-4 98.4 µM | RXF 393 22.3 µM | SF-295 46 µM | SNB-19 61.9 µM | SR 34.4 µM | SW-620 68.7 µM | T47D 35.6 µM

Reference: ChEMBL document CHEMBL1201862, “PubChem BioAssay data set” (2004)
